Common to all, as to assay type: cell-based, human
Test [1] deals with NB4 cells. Briefly: Granulocytic differentiation, cytofluorimetric analysis of CD11b membrane expression, alone or with ATRA. The settings on record: for % of CD11b+ cells: three days; for effect on CD11b positive cells, in words: alone or in combination with 20 nM ATRA. Here is the method: Identification of markers of myeloid maturation was determined by flow cytometry by labelling cells with PE-conjugated antibody and FITC-conjugated antibody to CD11b (granulocyte marker) and CD14 (monocyte marker) respectively (Becton-Dickinson). Cell suspension aliquots (1×10^5 cells) were washed with cell wash buffer (Becton-Dickinson) and incubated with antibodies for 30 minutes in ice. After the incubation cells, resuspended in 0.3 mL of buffer containing Actinomycin D (Becton-Dickinson) to evaluate cell viability, were submitted to the cytofluorimetric analysis (FACScan, Becton-Dickinson). Cells incubated with appropriately labeled isotype controls were used to gate nonspecific fluorescence signal.
(§1) • Compounds (II) in racemic form and enantiomers S or R. • Compounds (III) in racemic form and enantiomers S or R. • Compounds (II) with R1 and R2=hydrogen were tested for their capability to synergize with ATRA and for their ability to induce granulocyte differentiation in the human promyelocytic cell line NB4. ATRA at the final concentration of 1 μM is usually employed to induce granulocyte differentiation in NB4 cells.
(§2) NB4 cells were incubated for three days in presence of the compounds listed above, alone or in combination with ATRA. Granulocyte differentiation of leukemic cells was determined by (a) Nitro-Blu tetrazolium (NBT) reduction to dark formazan precipitate (blu positive cells) counting NBT positive cells on Burker chamber and (b) cytofluorimetric analysis of CD11b membrane expression (granulocyte marker, see example 32).

The subject of test [2] is NB4 cells. The test is described as follows: Cytostatic and apoptotic activity, Annexin-V-FLUOS/propidium iodide flow cytometry, 48 hours. The conditions noted are these: for IC50: Homo sapiens, NB-4, 48 hours, graphic extrapolation of Annexin-V results, viable cells over control, read-out: IC50 (drug concentration reducing cell density or viability by 50%); for apoptotic activity, in words: leukemic cells, summary in description. Here is the method:
(§3) The new described compounds were tested for their ability to inhibit the histone deacetylase activity by western blot for the acetylated isoforms of histone H3 and H4 and also to induce growth arrest in cancer cells by activating apoptosis and/or cell differentiation. Initially, biological activities of newly synthesized HDACi were assessed by using the human acute promyelocytic leukemia cell line NB4, as the experimental model. Cells were maintained in RPMI (Bio-Whittaker Europe, Verviers, Belgio) supplemented with 10% of fetal calf serum (FCS, Boehringer Mannheim, Germania) and 2 mM glutamine (Merck, Darmstadt, Germania) at 37° C. in a humidified atmosphere of 5% CO2. Cells were counted in a Burker chamber and cells viability was assessed by the trypan blu exclusion test.
Cells, were initially harvested at 4×10^5/mL (3 mL/well) cell density 24 well plate and incubated for 48 hours with increasing drug concentration. All compounds were solubilized in DMSO so that the final concentration of vehicle in culture was lower than 0.1%. At the end of treatment cell viability and apoptosis were evaluated by cytofluorimetric analysis using Anexin-V-Fluos staining (Annexin-V-FLUOS Staining Kit, Roche Molecular Biochemicals, Mannheim, Germany).
Necrotic cells, which are also Annexin-V positive, were identified by using Propidium iodide fluorochrome, that is capable of penetrating cell membranes of dying or dead cells and binding DNA.
Briefly, aliquots of cell suspensions (approximately 10^5 cells) washed in buffer PBS, were resuspended in 5 μl of binding buffer containing annexin V-fluorescein isothiocyanate (FITC) and propidium iodide; incubation was carried out for 15 minutes at room temperature, and cells were then analyzed by flow cytometry (FACScan Becton-Dickinson, San Jose, Calif.).
The IC50 values (i.e. the drug concentration necessary to reduce cell density or viability by 50% as compared to untreated control cultures) obtained by graphic extrapolation of the Anexin-V results and expressed as percentage of viable cells over control were reported In Table 2.
Data represent the percentage of viable cells as the function of drug concentration.

Test [3] has as its system NB4 cells. Briefly: Granulocytic differentiation, NBT reduction assay, alone or with ATRA. The conditions noted are these: for % of NBT+ cells: three days. Here is the method:
The analysis of functional myeloid differentiation induced by compounds of the invention was accomplished by Nitro-Blu tetrazolium (NBT) reduction assay as described below. Cell suspension (approximately 10^5/mL) were incubated in the presence of 0.25 mg/mL NBT and 500 ng of PMA (Phorbol-12-Myristate 13-acetate) (Sigma) at 37° C. for 30 minutes. Granulocyte or monocyte differentiated cell were capable of reducing NBT to dark formazan precipitate (blu positive cells). NBT positive cells were counted on Burker chamber and expressed as percentage of total cell population.
as §1, §2

The subject of the next test is acetylated H3 histone. The test is described as follows: Histone deacetylase inhibition: western blot for acetylated histone H3 in cells incubated 6 hours with drug. The settings on record: for Acetyl-H3 densitometric value: 6 hours, untreated = 1; for H3 histone acetylating activity, in words: summary in description. On the procedure:
as §3
(§4) Cells, obtained as described above, were harvested in sterile plates (Falcon, Becton Dickinson, Franklin Lakes, N.J.) at density of 6×10^5/mL, and incubated for 6 hours with increasing drug concentration of single compounds. Then, the cells were lysated with RIPA buffer (50 mM Tris-HCl pH 7.4, 150 mM NaCl, 1% Nonidet P-40, 1 mM EDTA plus protease inhibitor cocktail (Protease Inhibitor Cocktail Set III, n° cat. 539134, Calbiochem, Merck, Darmstadt, Germany) and sonicated (Labsonic 1510) twice for 15s pulses at 1-2 Watts in ice. Protein concentration of cell extracts was determined according to the bicinchoninic acid colorimetric method (BCA, Pierce, Rockford, USA) by using serum bovine albumin as the standard (BSA, Sigma, Steinheim, Germania). Equal amounts of protein (20-40 μg/20-30 μL/well) were separated on NuPAGE Bis-Tris 12% gel (Novex, Invitrogen, Carlsbad, Calif.) 10% and transferred to nitrocellulose membranes (Pro-Bind, pore diameter=0.45 μm; Amersham Pharmacia). Then membranes, incubated in phosphate buffer saline (PBS) with 6% defatted dry milk as blocking solution to saturate unspecific binding sites, were probed overnight at 4° C. with primary antibodies (1;1000 dilution in PBS) raised against acetylated H4 a H3 histone isoforms (Upstate Technologies, Lake Placid, N.Y., USA). […] The experiment was performed with the compound (II) S form, where R1 and R2 can be independently a methyl group or hydrogen.
For orientation: A western blot detects proteins with antibodies after separation by electrophoresis.

The next test has as its system acetylated H4 histone. The test is described as follows: Histone deacetylase inhibition: western blot for acetylated histone H4 in cells incubated 6 hours with drug. The conditions noted are these: for Acetyl-H4 densitometric value: 6 hours, untreated = 0; for H4 histone acetylating activity, in words: summary in description. On the procedure: as §3, §4
Test [4] concerns NB4 cells. Briefly: Morphologic evaluation of apoptosis, May-Grünwald-Giemsa stained cytosmears. The conditions noted are these: FIG. 1 panel C, magnification ×650. On the procedure: Cells were fixed with acid acetic/methanol (⅓, v/v), then 20 μL of fixed cell suspension were placed on glass slide and let dry for 24 h. The cytosmears were stained with May-Grünwald-Giemsa and apoptotic cells were identified according to the typical morphologic parameters such as nuclear fragmentation, reduction of cell volume and apoptotic bodies. Image analyses were obtained by using a Nikon Eclipse 50i microscope equipped with a Nikon Digital Sight DS -5M (Nikon Corporation, Tokyo, Japan).

The structures appear in SMILES notation.

In the case of `CC1N=C(c2ccccc2)c2cc(C#CCCCC(=O)NO)ccc2N(C)C1=O` (racemic) [Compound (II) racemic with R1 or R2 = Me, N-hydroxy-6-(1,3-dimethyl-2-oxo-5-phenyl-2,3-dihydro-1H-benzo[e][1,4]diazepin-7-yl)-5-hexynamide], the entries for the “% of CD11b+ cells” value with NB4 cells [1] (3 μM compound + 20 nM ATRA) and in the test on NB4 cells [1] (3 μM compound alone) were 81.7% and 31.2%, respectively. The IC50 in the test with NB4 cells [2] was 3.4 µM. Further, in the test on NB4 cells [2], the “apoptotic activity, in words” value is reported as “good ability to induce apoptosis”. The “increase of NBT positive cells, combination versus each agent alone” value in the test on NB4 cells [3] (3 μM compound + 20 nM ATRA) was “up to 50 fold”. Besides, the entries for the “% of NBT+ cells” value in the test on NB4 cells [3] (3 μM compound + 20 nM ATRA) and in the test with NB4 cells [3] (3 μM compound alone) were 72% and “≦1%”, respectively. The Acetyl-H3 densitometric value in the test with acetylated H3 histone (1 μM) is listed as 3.73 arbitrary units; in the test on acetylated H3 histone (2 μM), 4.61 arbitrary units; in the test with acetylated H3 histone (5 μM), 5.19 arbitrary units. In addition, the Acetyl-H4 densitometric value was found to be 1.67 arbitrary units in the test on acetylated H4 histone (1 μM), 5.92 arbitrary units in the test with acetylated H4 histone (2 μM) and 16.29 arbitrary units with acetylated H4 histone (5 μM).
With `CN1C(=O)CN=C(c2ccccc2)c2cc(C#CCCCC(=O)NO)ccc21` [Compound (II) R1 and R2 = hydrogen, 6-(1-methyl-2-oxo-5-phenyl-2,3-dihydro-1H-benzo[e][1,4]diazepin-7-yl)-N-hydroxyhex-5-ynamide], the “% of CD11b+ cells” value with NB4 cells [1] (1.5 μM compound + 20 nM ATRA) is 74.3%; in the test on NB4 cells [1] (1.5 μM compound alone), 44%; in the test with NB4 cells [1] (3 μM compound + 20 nM ATRA), 94.7%; with NB4 cells [1] (3 μM compound alone) it was 69.3%. Also, the “effect on CD11b positive cells, in words” value in the test with NB4 cells [1] was “significant and dose-dependent increase in the amount of CD11b positive cells”. In addition, in the test on NB4 cells [2], the IC50 is 4.9 µM. In addition, the “apoptotic activity, in words” value with NB4 cells [2] is listed as “excellent apoptotic activity”. Besides, the “% of NBT+ cells” value was determined as 45% in the test with NB4 cells [3] (1.5 μM compound + 20 nM ATRA), 2% in the test with NB4 cells [3] (1.5 μM compound alone), 80% in the test with NB4 cells [3] (3 μM compound + 20 nM ATRA) and 3% in the test with NB4 cells [3] (3 μM compound alone). Further, the Acetyl-H3 densitometric value was 2.26 arbitrary units with acetylated H3 histone (0.5 μM), 2.41 arbitrary units with acetylated H3 histone (1 μM) and 2.836 arbitrary units with acetylated H3 histone (2.5 μM). In addition, the results for the Acetyl-H4 densitometric value in the test with acetylated H4 histone (0.5 μM), with acetylated H4 histone (1 μM) and in the test on acetylated H4 histone (2.5 μM) were 1.3 arbitrary units, 1.8 arbitrary units and 4 arbitrary units, respectively. Further, the “H4 histone acetylating activity, in words” value in the test with acetylated H4 histone is “good H4 histone acetylating activity”.
For `C[C@@H]1N=C(c2ccccc2)c2cc(C#CCCCC(=O)NO)ccc2N(C)C1=O` [Compound (II) S form with R1 or R2 = Me, (S)-6-(1,3-dimethyl-2-oxo-5-phenyl-2,3-dihydro-1H-benzo[e][1,4]diazepin-7-yl)-N-hydroxyhex-5-ynamide], the entries for the “% of CD11b+ cells” value in the test on NB4 cells [1] (1.5 μM compound + 20 nM ATRA) and in the test on NB4 cells [1] (1.5 μM compound alone) were 62.3% and 36.3%, respectively. The “morphology of treated cells (apoptosis)” value in the test on NB4 cells [4] is recorded as “massive nuclear fragmentation suggestive of a typical apoptotic process”. Besides, the IC50 with NB4 cells [2] was 1.7 µM. Besides, the “% of NBT+ cells” value in the test with NB4 cells [3] (1.5 μM compound + 20 nM ATRA) was 41%; in the test with NB4 cells [3] (1.5 μM compound alone) it was “≦1%”. Further, the Acetyl-H3 densitometric value is 2.88 arbitrary units in the test with acetylated H3 histone (0.5 μM), 3.85 arbitrary units in the test with acetylated H3 histone (1 μM) and 5.23 arbitrary units in the test with acetylated H3 histone (2.5 μM). Further, in the test with acetylated H3 histone, the “H3 histone acetylating activity, in words” value is recorded as “good activity to induce H3 histone acetylation in a dose-dependent way”. In addition, the Acetyl-H4 densitometric value in the test with acetylated H4 histone (0.5 μM) stood at 1 arbitrary units; in the test on acetylated H4 histone (1 μM) it was 1.33 arbitrary units; in the test on acetylated H4 histone (2.5 μM), 12.96 arbitrary units. Besides, in the test with acetylated H4 histone, the “H4 histone acetylating activity, in words” value is given as “facilitating, in its enantiomerically pure (S) form, H4 histone acetylation”.
`C[C@H]1N=C(c2ccccc2)c2cc(NC(=O)CCCCCCC(=O)NO)ccc2N(C)C1=O` [Compound (III) R form with R1 or R2 = Me, (R)—N1-(1,3-dimethyl-2-oxo-5-phenyl-2,3-dihydro-1H-benzo[e][1,4]diazepin-7-yl)-N8-hydroxyoctanediamide]: the entries for the “% of CD11b+ cells” value in the test on NB4 cells [1] (3 μM compound + 20 nM ATRA) and in the test on NB4 cells [1] (3 μM compound alone) were 80% and 39.3%, respectively. Moreover, the “effect on CD11b positive cells, in words” value with NB4 cells [1] is listed as “augmented the percentage of CD11b positive cells”. Moreover, in the test on NB4 cells [2], the IC50 was 3.7 µM. In the test with NB4 cells [2], the “apoptotic activity, in words” value is given as “high apoptotic activity”. Also, the “% of NBT+ cells” value is given as 70% in the test on NB4 cells [3] (3 μM compound + 20 nM ATRA) and 3% in the test on NB4 cells [3] (3 μM compound alone). In addition, the figures for the Acetyl-H3 densitometric value in the test on acetylated H3 histone (1 μM), with acetylated H3 histone (2 μM) and in the test on acetylated H3 histone (5 μM) were 4.46 arbitrary units, 6.85 arbitrary units and 7.27 arbitrary units, respectively. The “H3 histone acetylating activity, in words” value with acetylated H3 histone was “good H3 histone acetylating activity”. The Acetyl-H4 densitometric value in the test on acetylated H4 histone (1 μM) is 17.78 arbitrary units; with acetylated H4 histone (2 μM), 29.63 arbitrary units; in the test on acetylated H4 histone (5 μM), 34.07 arbitrary units. In the test with acetylated H4 histone, the “H4 histone acetylating activity, in words” value was “excellent H4 histone acetylating activity”.

The values are drawn from patent US8324202B2, “5-phenyl-1H-benzo [E] [1,4] diazepine compounds substituted with an hydroxamic acid group as histone deacetylase inhibitors” (Universita Degli Studi di Firenze, priority 2007, dated 2012).
